Test results published in US20250114436A1, “DYNAMIC-COVALENT HYDROGELS WITH GLUCOSE-SPECIFIC AND GLUCOSE-RESPONSIVE DIBORONATE CROSSLINKING” (UNIVERSITY OF NOTRE DAME DU LAC, priority 2022, published 2025).

Key:
[1] = test system: streptozotocin (STZ)-induced diabetic mice; assay: Blood glucose control in vivo with glucose tolerance tests; set-up: species or system male C57BL6/J mice; details: free insulin 4 IU/kg
Description: To evaluate the performance hydrogels for blood glucose control, male C57BL6/J mice (8 weeks old, ˜25 g/mouse; Jackson Laboratory) were induced to be insulin deficient using streptozotocin (STZ). Mice were fasted for 4 h, following which a single intraperitoneal (i.p.) injection of STZ at a dose of 150 mg/kg was administered. Following an additional 30 min fast, food was returned. Seven days following STZ treatment, insulin-deficient diabetes was verified using hand-held blood glucose meters (CVS brand) with unfasted blood glucose (BG) levels ensured to be above 600 mg/dL for study inclusion. Mice were then fasted for 12 h, and those with BG >550 mg/dL were randomly divided into 4 groups (n=5-6/group). […] BG level were continuously monitored for 3 h after treatment. […] BG were subsequently monitored for 3 h. […] Areas under the curve (AUC) were calculated using the trapezoidal rule and statistical analyses were performed to compare DiPBA and FPBA treatment groups using GraphPad Prism v9.0, with significance obtained using a Student's t-test. […] Glucose levels were monitored over time using handheld glucometers (FIG. 11B). […]

[2] = Isothermal titration calorimetry (ITC), glucose binding; details: for Keq for binding to glucose: 298 K, pH 7.4 PBS
Description: (§1) The binding affinities (Keq) between different small molecule PBAs and model analytes (FIG. 2) were measured through isothermal titration calorimetry (ITC). All titration experiments were performed at 298 K on a PEAQ-ITC calorimeter (MicroCal, Inc.) in degassed pH 7.4 PBS buffer, using a 38 μL syringe and 200 μL cells and consisting of 19 injections. The measurements were performed by titrating glucose, fructose, sodium lactate, or Diolsm from the syringe into a solution of small molecule variants of DiPBAsm, PyPBAsm, or FPBAsm loaded in the cell. In all titration experiments, the cell concentration was 1 mM, while the analyte concentrations in the syringe were varied according to experimental optimization. All raw data were corrected by subtraction of a dilution measurement of the titrated analytes into buffer and were then analyzed and graphed using the integrated public-domain software packages of NIPIC, SEDPHAT, and GUSSI according to a published protocol. See Brautigam et al., Nat. Protoc. 11(5): 882-894 (2016).
(§2) To first quantify the affinities of binding for these different PBA motifs to glucose, related analytes, and model diols, a set of small molecules (FIG. 2) were synthesized for isothermal titration calorimetry (ITC) studies. […] By comparison, the commonly used FPBA motif had Keq for glucose binding of only 8.6 M^−1. […] Accordingly, concerns over low-affinity glucose-binding and poor glucose selectivity of traditional PBAs are supported by these ITC data, with both issues seemingly overcome using DiPBA chemistry. […] Finally, to explore the likely outcomes of using each of these PBA motifs in the context of dynamic-covalent networks a model diol (GdL-Diol) was prepared from reaction of glucono-δ-lactone (GdL) with benzylamine. The Keq of binding for each PBA motif to this model diol were nearly identical (˜5×10^3 M^−1); this finding confirms similar 1:1 binding stoichiometry between all three PBA chemistries studied here and the GdL-derived diol chemistry commonly used in preparing dynamic-covalent PBA-diol networks.

[3] = Isothermal titration calorimetry (ITC), lactate binding
Description: as §1, §2

[4] = Acid-base titration for pKa determination; assay type: physicochemical; details: small molecule
Description: A 0.01 M stock solution of the PBA of interest was prepared by dissolving 0.2 mmol of each PBA in 20 mL DI water. The solution was then titrated with 0.005 M NaOH solution under constant stirring with pH monitoring.
Previously reported diboronate glucose sensors include architectures of two phenylboronic acids attached to an aryl core via charged ammonium linkers. In a variation on this approach, the DiPBA motif explored here has introduced adjacent charge via pyridine-based phenylboronic acid structures (FIG. 1B). Besides conserving adjacent positive charge, the topology of this novel design was also intended to afford a more rigid pocket for simultaneous glucose binding by both boronates (FIG. 2B). Details for the synthesis and molecular characterization of this novel DiPBA group, along with all other synthetic small molecules and macromers, are reported in the Online Supporting Information. As a control for this glucose-binding motif, a single pyridine-PBA (PyPBA) was also synthesized. DiPBA and PyPBA motifs were compared in this work to a fluorine-substituted PBA motif (FPBA) that has been routinely reported in glucose-responsive materials and therapeutic constructs.

[5] = Isothermal titration calorimetry (ITC), fructose binding
Description: as §1, §2

Row | Keq for binding to glucose [2] [M⁻¹] | lactate binding compared to FPBA / traditional PBA [3] | pKa ([4]; DI water titrated with 0.005 M NaOH) | fructose binding compared to FPBA / traditional PBA [5] | glucose affinity relative to a traditional PBA motif (times higher) [2] [times] | Keq for glucose relative to that for lactate (times higher) ([3]; pH 7.4 PBS) [times] | pKa1 [4] | pKa2 [4] | Keq for glucose relative to that for fructose (times higher) ([5]; pH 7.4 PBS) [times] | Compound | blood glucose response to first i.p. glucose tolerance test ([1]; GTT 1.25 g/kg glucose at 180 min) | time to blood glucose nadir ([1]; s.c.) [h]
1 |  |  |  |  |  |  |  |  |  | insulin: Recombinant Human Insulin, free insulin control, 4 IU/kg s.c. | dramatically increased blood glucose without any subsequent correction | ~1
2 | 164.7 | reduced | 4.41 | reduced |  |  |  |  |  | COC(=O)c1cccc(C[n+]2cccc(B(O)O)c2)c1 [PyPBA] |  | 
3 | 1295 | reduced |  | reduced | 150 | 29 | 4.53 | 7.45 | 1.7 | COC(=O)c1cc(C[n+]2cccc(B(O)O)c2)ccc1C[n+]1cccc(B(O)O)c1 [DiPBA] |  | 
